Here are results for two compounds from patent publication US20170252392A1, “COMPOSITION FOR IMPROVEMENT, TREATMENT OR PREVENTION OF CONSTIPATION COMPRISING CASSIA SEED LACTIC ACID BACTERIA FERMENTED PRODUCT AS EFFECTIVE INGREDIENT, AND METHOD FOR PREPARING SAME” (HAENAM NATURAL FARMING ASSOCIATION COOPERATION, priority 2014, published 2017).

The subject of assay [1] is Sprague-Dawley (SD) rats with loperamide-induced constipation. The assay can be described thus: Prevention of loperamide-induced constipation: number and weight of feces (Experimental Example 2). The assay is classed as in vivo, rat. The method, then:
Four-week-old male Sprague-Dawley (SD) rats were purchased from Damul Science (Daejeon, Korea) and bred at a temperature of 20±2° C. and a humidity of 55±5% on a 12 h light-dark cycle. The experimental animals were acclimated for 1 week after purchase and were divided into the experimental groups (5 animals per group) shown in Table 3.
All experimental groups other than the normal control (NOR) and the negative control (LOP) were administered orally the respective drugs (positive controls) or the respective fermented products of Preparative Example 4 for 5 days before loperamide administration.
The negative control (LOP), the positive controls (CON1, CON2), and all experimental groups other than the normal control (NOR) were administered subcutaneously loperamide for 5 days to induce constipation. The experimental animals were sacrificed on day 6 after initiation of the loperamide administration.

Assay [2] has the same test system. The assay can be described thus: Colonic transits of carmine dye (Experimental Example 3). The assay is classed as in vivo, rat. As to conditions: 20 min after oral carmine dye. The method, then: At day 6, 3 mL of carmine dye at a concentration of 1.5% (w/v) in physiological saline was administered orally to the experimental animals. 20 min after the oral administration, the experimental animals were sacrificed. Thereafter, in each experimental animal, both ends of the site of the colon from the appendix to the rectum were ligated. The colon site was excised and washed with PBS. The colonic transits of the carmine dye were measured from FIG. 6.

For sennoside, the Number of feces entry in assay [1] (sennoside 50 mg/kg oral before loperamide 4 mg/kg s.c. 5 days (CON1)) was “more effective in increasing the number of feces than Dulcolax-S”. Besides, the Weight of feces result in assay [1] (sennoside 50 mg/kg oral before loperamide (CON1), compared with CON2) is “no significant difference in the weight of feces”. In assay [2] (sennoside 50 mg/kg oral before loperamide (CON1)), the “Colonic transit of the carmine dye” value is reported as “significantly increased compared to that in the negative control (LOP)”.

Consider `CN(C)C(=O)C(CCN1CCC(O)(c2ccc(Cl)cc2)CC1)(c1ccccc1)c1ccccc1` [loperamide], for which, in assay [1] (negative control (LOP): loperamide 4 mg/kg subcutaneously for 5 days, normal control 4.8±0.89), the Weight of feces came to 2.6±0.32. In addition, in assay [1] (negative control (LOP): loperamide 4 mg/kg subcutaneously for 5 days, normal control 47.2±5.8), the Number of feces is on record as 23.1±3.6. Besides, in assay [2] (negative control (LOP): loperamide 4 mg/kg s.c. 5 days, normal control 13.4±0.94 cm), the “Colonic transit of the carmine dye” value worked out at 6.6±0.75 cm.
